Source: US4696920A, “Certain 2-substituted 1,3-propylidenediphosphonate derivatives, pharmaceutical compositions containing them and their use as antihypertensive agents” (priority 1984, dated 1987)

Assays:
[1] = system: drug receptor sites associated with calcium channels; settings: known calcium antagonists; cited from earlier work
[2] = system: blood pressure in hypertensive rats; test: Oral hypotensive activity in hypertensive rats (tail cuff); assay type: in vivo, rat (spontaneously hypertensive, SHR); settings: Table 5
Description: Some selected compounds were given orally to conscious SHR rats and blood pressure was monitored using the tail cuff method. A marked and sustained hypotensive activity was measured in all treated rats. Results are given 2 hours post dose (Table 5). These studies illustrate the obvious potential use of orally administered 1,3-diphosphonates for the clinical treatment of hypertension in man.

[3] = system: [^3 H]-PN-200 110 (dihydropyridine) binding site of calcium channel, rat brain membranes; test: [^3 H]-PN-200 110 binding to rat brain membranes; set-up: species or system rat (male Wistar); settings: for Specifically bound [^3 H]-PN-200 110 % of control value: compound concentration 1.0 μM; for Specifically bound [^3 H]-PN-200 110 % of control value / Bound ^3 H at 1.0 μM / Bound ^3 H at 0.1 μM: Table 1b; for Bound ^3 H at 1.0 μM / Bound ^3 H at 0.1 μM: ratio of [^3 H]-PN-200 110 bound at 1.0 and 0.1 μM compound; for potency in [^3 H]-PN200 110 binding (in words): text on Table 1b
Description: (§1) Diltiazem hydrochloride was a generous gift from Goedecke A. G.
Water insoluble compounds were dissolved in absolute ethanol to give 10 mM or 2.5 mM stock solutions. Suitable dilutions were made in 50 mM Tris-HCl buffer (pH 7.4) containing 150 mM NaCl and 1 mM CaCl2. The ethanol concentration in the final assay never exceeded 0.1%.
(§2) The purity of the radioligand and of the various agents tested was monitored by thin layer chromatography on silica gel plates.
(§3) The following procedure was adapted from Bellemann et al (Proc. Nat. Acad. Sci. 80, 2356, 1983), and Gould et al (Proc. Nat. Acad. Sci. 79, 3656, 1982).
(§4) Adult male Wistar rats weighing 250-300 g were anesthetized with carbon dioxide prior to decapitation. The brain was removed then immersed in ice-cold 0.32M sucrose and washed 2-3 times with fresh solution. Cerebral cortex was minced and homogenized (Potter-Elvehjem homogenizer) in 10 volumes of ice-cold sucrose solution. The homogenate was centrifuged (4° C.) at 1000×g for 15 minutes. The resulting supernatant was then centrifuged at 90000×g (30 minutes) and the pellet was washed twice with 20 ml ice-cold 50 mM Tris-HCl pH 7.4.
(§5) The final pellet was resuspended in 50 mM Tris-HCl pH 7.4/150 mM NaCl/1 mM CaCl2 to give a protein concentration of 4 mg/ml.
(§6) The membrane suspension was kept on ice until used. Binding assays were performed in subdued light to prevent dihydropyridine breakdown. Membrane protein (400 μg/tube) was incubated in 50 mM Tris-HCl buffer (pH 7.4)/150 mM NaCl/1 mM CaCl2 with the indicated concentrations of radioligand and test compounds or known calcium antagonists, in a total volume of 2 ml. After the indicated time intervals, the reaction was terminated by rapid filtration through Whatman GF/B glass fiber filters (2.4 cm diameter) on a Millipore filter holder. The assay tube was rinsed with 2 ml ice-cold 50 mM Tris-HCl pH (7.4) and the precipitate was further washed with 2×5 ml of the same buffer.
(§7) Filters were dried under a heat lamp and were extracted with 10 ml of liquid scintillation cocktail (Toluene/Triton X-100, 2/1 containing 4 g Omnifluor/1) prior to tritium determination at 48% counting efficiency.
(§8) Assays were performed in duplicate or triplicate.
(§9) Data were expressed as percent specific [^3 H]-Nitrendipine binding relative to the established control value.
(§10) Compound activity in the [^3 H]-Nitrendipine binding assay was evaluated by using the following criteria:
(§11) 1. [^3 H]-Nitrendipine binding at 1.0 μM compound final concentration was either below 95% or above 105% of the control value determined in absence of compound.
2. The ratio obtained by dividing the amount of specifically found [^3 H]-Nitrendipine at 1.0 μM compound final concentration by the value obtained at 0.1 μM test compound, was smaller than 0.9 or greater than 1.1. This ratio is indicative of a dose response relationship within the compound concentration range tested, when the value differs appreciably from 1.0.
Note: In some experiments [^3 H]-PN200 110, a new and commercially available specific dihydropyridine was used instead of [^3 H]-Nitrendipine.

[4] = system: rat trachea contraction induced by KCl depolarization; test: KCl-induced rat trachea contraction; set-up: species or system rat (male SHR, Okamoto-Aoki)
Description: Spontaneously hypertensive male rats (SHR) Okamoto-Aoki Strain, weighing 300-400 g were used in this study. They were killed by bleeding after Pentobarbital anesthesia (Nembutal, Abbott Co, 40 mg/kg). Their entire trachea was quickly removed and dissected free of fat and connective tissue in Krebs-Ringer solution. A strip (4 mm×40 mm), obtained by spirally cutting the trachea, was immediately suspended in a 50 ml Krebs-Ringer solution and continuously bubbled with a O2 /CO2 (95/5) mixture. Bath temperature was maintained at 37±1° C. The composition (mM) of the Krebs-Ringer solution modified by Nghiem, was as follows: NaCl, (118.0); KCl, (4.7); CaCl2, (2.5); MgCl2, (1.18); NaHCO3, (12.5); KH2 P04, (1.18); glucose, (5.5) in bidistilled water (pH 7.4). Each strip was equilibrated under initial tension (1.5-2 g) for 1-2 hours and the bath solution changed every 30 min. A contractile or relaxant response was isometrically measured with a force-displacement transducer (Ugo-Basile) and recorded on a polygraph (Beckman).
After equilibration, KCl was added to the bath at 65 mM final concentration. This concentration produced maximum trachea contraction. Under these conditions, a plateau phase showing a tonic sustained contraction was reached within 30 minutes. Drugs were added 30 minutes after the plateau phase has been reached (final concentration=1.0 μM). […] Recordings of the residual trachea contraction were made 40 minutes after drug addition to the bathing fluid. The initial KCl induced contraction was taken as the maximum KCl response (100%). Results were expressed as % of maximal contraction. Nifedipine, Prenylamine, Flunarizine and Diltiazem were used as reference standards to validate this assay.
All 1,3-diphosphonates and drugs were dissolved in saline (0.9% NaCl) except when water insoluble, then the compounds were dissolved in 2% ethanol. The final concentration of ethanol used has been shown not to interfere with the assay.
Results are expressed as mean values±SEM, the Student's t-test was used for statistical analysis.

[5] = system: calcium channel binding site for [^3 H]-Nitrendipine (rat brain membranes); test: [^3 H]-Nitrendipine binding to rat brain membranes; set-up: species or system rat (male Wistar)
Description: as §1
Suitable dilutions were made in 50 mM Tris-HCl buffer (pH 7.4) containing 150 mM NaCl and 1 mM CaCl2. The ethanol concentration in the final assay never exceeded 0.1%.
as §2, §3, §4, §5, §6, §7, §8, §9, §10, §11
2. […] This ratio is indicative of a dose response relationship within the compound concentration range tested, when the value differs appreciably from 1.0.

| Structure (SMILES) | effect on [^3 H]-Nitrendipine binding (in words) [1] | oral hypotensive activity (in words) [2] | Specifically bound [^3 H]-PN-200 110 % of control value [3] | Bound ^3 H at 1.0 μM / Bound ^3 H at 0.1 μM [3] | potency in [^3 H]-PN200 110 binding (in words) [3] | other results |
| --- | --- | --- | --- | --- | --- | --- |
| Cc1cccc(C)c1NC(=O)CN1CCN(CCCC(c2ccc(F)cc2)c2ccc(F)cc2)CC1 [Lidoflazine] | reduce [^3 H]-Nitrendipine binding affinity |  |  |  |  |  |
| CCCCOP(=O)(CC(CCOc1cccc(C(F)(F)F)c1)CP(=O)(OCCCC)OCCCC)OCCCC [Compound 93] |  | decrease blood pressure as markedly as the marketed calcium antagonists used as references | 0 % of control value | 0.000 | as potent as Nifedipine |  |
| CCCCOP(=O)(CC(CCOc1ccccc1)CP(=O)(OCCCC)OCCCC)OCCCC [Compound 79, Tetrabutyl 2-(2-phenoxyethyl)-1,3-propylidenediphosphonate] |  | decrease blood pressure as markedly as the marketed calcium antagonists used as references | 3 % of control value | 0.211 |  | activity at 1 µM ([4]; Rattus norvegicus, 40 min, read-out: Contraction (% max.)): 60.3 ± 9.6%; activity on KCl-induced trachea contraction (in words) ([4]; final concentration 1.0 μM): potent pharmacological activity; modulation of [^3 H]-Nitrendipine binding (in words) ([5]; Table 1a): strong inhibitors; Specifically bound [^3 H]-Nitrendipine % of control value ([5]; compound concentration 1.0 μM, Table 1a): 0 % of control value; Bound ^3 H at 1.0 μM / Bound ^3 H at 0.1 μM ([5]; ratio of [^3 H]-Nitrendipine bound at 1.0 and 0.1 μM compound, Table 1a): 0.000 |
| CC(Cc1ccccc1)NCCC(c1ccccc1)c1ccccc1 (centres unmarked) [Prenylamine, reference compound] | reduce [^3 H]-Nitrendipine binding affinity |  |  |  |  | % [^3 H]-Nitrendipine bound ([5]; reference standards at 1 μM): 57% |
| C(=C\c1ccccc1)/CN1CCN(C(c2ccccc2)c2ccccc2)CC1 [Cinnarizine] | reduce [^3 H]-Nitrendipine binding affinity |  |  |  |  |  |
| CCCCOP(=O)(CC(CCOc1ccc(F)cc1)CP(=O)(OCCCC)OCCCC)OCCCC [Compound 89] |  | decrease blood pressure as markedly as the marketed calcium antagonists used as references | 6 % of control value | 0.310 | as potent as Nifedipine |  |
